In PubChem BioAssay AID2060625 (Molecular Pharmacology Branch, DTP, NCI, 2025):
Values joined by “and” are separate entries in the source; they are usually repeats but may differ in a detail not shown here. Identical values can stand only once.

Tested on: 186277-243-T-J2-PDC spheroids with HUVEC/MSC, viability
Experiment: Anticancer human tumor 186277-243-T-J2-PDC patient-derived colon adenocarcinoma cell line growth inhibition [CLK]
Conditions: for viability, T/C: stronger effect = lower value
Outline: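 Multi-cell-type spheroids combined patient-derived tumor cells with HUVEC endothelial cells and human mesenchymal stem cells. Paired agents were dosed in half-log steps down from about clinical Cmax, or from 10 microM where Cmax was unknown.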

[1] = curve of first compound, second compound 0.0316 µM
[2] = curve of first compound, second compound 0.1 µM
[3] = curve of first compound, second compound 0.316 µM
[4] = curve of first compound, second compound 1 µM
[5] = curve of first compound, second compound 3.16 µM
[6] = curve of first compound, second compound 10 µM
[7] = second compound 0.0316 µM, first compound 0.0316 µM
[8] = second compound 0.0316 µM, first compound 0.1 µM
[9] = second compound 0.0316 µM, first compound 0.316 µM
[10] = second compound 0.0316 µM, first compound 1 µM
[11] = second compound 0.0316 µM, first compound 3.16 µM
[12] = second compound 0.0316 µM, first compound 10 µM
[13] = second compound 0.1 µM, first compound 0.0316 µM
[14] = second compound 0.1 µM, first compound 0.1 µM
[15] = second compound 0.1 µM, first compound 0.316 µM
[16] = second compound 0.1 µM, first compound 1 µM
[17] = second compound 0.1 µM, first compound 3.16 µM
[18] = second compound 0.1 µM, first compound 10 µM
[19] = second compound 0.316 µM, first compound 0.0316 µM
[20] = second compound 0.316 µM, first compound 0.1 µM
[21] = second compound 0.316 µM, first compound 0.316 µM
[22] = second compound 0.316 µM, first compound 1 µM
[23] = second compound 0.316 µM, first compound 3.16 µM
[24] = second compound 0.316 µM, first compound 10 µM
[25] = second compound 1 µM, first compound 0.0316 µM
[26] = second compound 1 µM, first compound 0.1 µM
[27] = second compound 1 µM, first compound 0.316 µM
[28] = second compound 1 µM, first compound 1 µM
[29] = second compound 1 µM, first compound 3.16 µM
[30] = second compound 1 µM, first compound 10 µM
[31] = second compound 3.16 µM, first compound 0.0316 µM
[32] = second compound 3.16 µM, first compound 0.1 µM
[33] = second compound 3.16 µM, first compound 0.316 µM
[34] = second compound 3.16 µM, first compound 1 µM
[35] = second compound 3.16 µM, first compound 3.16 µM
[36] = second compound 3.16 µM, first compound 10 µM
[37] = second compound 10 µM, first compound 0.0316 µM
[38] = second compound 10 µM, first compound 0.1 µM
[39] = second compound 10 µM, first compound 0.316 µM
[40] = second compound 10 µM, first compound 1 µM
[41] = second compound 10 µM, first compound 3.16 µM
[42] = second compound 10 µM, first compound 10 µM
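Note: compound exposure lasted seven days before readout.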
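Throughout, for viability, T/C: 100% = DMSO vehicle control wells.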

For COc1c(OCCCN2CCOCC2)ccc2c3n(c(=NC(=O)c4cnc(N)nc4)nc12)CCN3, the viability, T/C (compound 0.00316 µM) was 84.7% and 90.2%, the viability, T/C (compound 0.01 µM) was 91.5% and 103% and the viability, T/C (compound 0.0316 µM) was 63.3% and 52.9%. The viability, T/C (compound 0.1 µM) was 40% and 23.9%, the viability, T/C (compound 0.316 µM) was 23.7% and 13.1% and the viability, T/C (compound 1 µM) was 15.5% and 8.53%. For the same molecule, the IC50 (curve of compound) was 63.6 nM and 34.6 nM.

CC(C)CC(NC(=O)C(Cc1ccccc1)NC(=O)c1cnccn1)B(O)O (stereo not drawn) + CNC(=O)c1ccc(Nc2nc(OC3CCCC3)c3c(-c4ccc5nc(C)oc5c4)c[nH]c3n2)c(OC)c1 was tested, and the IC50 [1] was 3.74 nM, the IC50 [2] was 1.79 nM and the IC50 [3] was 1.03 nM. The IC50 [4] was less than 0.949 nM, the IC50 [5] was less than 0.949 nM and the IC50 [6] was less than 0.949 nM. The viability, T/C (second compound 0.0316 µM, first compound 0.000949 µM) was 112%, the viability, T/C (second compound 0.0316 µM, first compound 0.003 µM) was 60.9% and the viability, T/C (second compound 0.0316 µM, first compound 0.00949 µM) was 4.41%. The viability, T/C (second compound 0.0316 µM, first compound 0.03 µM) was 2.07%, the viability, T/C (second compound 0.0316 µM, first compound 0.0949 µM) was 3.06% and the viability, T/C (second compound 0.0316 µM, first compound 0.3 µM) was 2.24%. For the same molecule, the viability, T/C (second compound 0.1 µM, first compound 0.000949 µM) was 77.7%, the viability, T/C (second compound 0.1 µM, first compound 0.003 µM) was 27.6% and the viability, T/C (second compound 0.1 µM, first compound 0.00949 µM) was 3.68%. The viability, T/C (second compound 0.1 µM, first compound 0.03 µM) was 1.91%, the viability, T/C (second compound 0.1 µM, first compound 0.0949 µM) was 2.97% and the viability, T/C (second compound 0.1 µM, first compound 0.3 µM) was 2.4%. For the same molecule, the viability, T/C (second compound 0.316 µM, first compound 0.000949 µM) was 52.8%, the viability, T/C (second compound 0.316 µM, first compound 0.003 µM) was 13.1% and the viability, T/C (second compound 0.316 µM, first compound 0.00949 µM) was 2.31%. It also gave a viability, T/C (second compound 0.316 µM, first compound 0.03 µM) of 2.27%, a viability, T/C (second compound 0.316 µM, first compound 0.0949 µM) of 1.45% and a viability, T/C (second compound 0.316 µM, first compound 0.3 µM) of 0.89%. For the same molecule, the viability, T/C (second compound 1 µM, first compound 0.000949 µM) was 36.5%, the viability, T/C (second compound 1 µM, first compound 0.003 µM) was 3.94% and the viability, T/C (second compound 1 µM, first compound 0.00949 µM) was 2.3%. For the same molecule, the viability, T/C (second compound 1 µM, first compound 0.03 µM) was 2.6%, the viability, T/C (second compound 1 µM, first compound 0.0949 µM) was 4.22% and the viability, T/C (second compound 1 µM, first compound 0.3 µM) was 2.48%. It also gave a viability, T/C (second compound 3.16 µM, first compound 0.000949 µM) of 33.3%, a viability, T/C (second compound 3.16 µM, first compound 0.003 µM) of 2.4% and a viability, T/C (second compound 3.16 µM, first compound 0.00949 µM) of 0.9%. For the same molecule, the viability, T/C (second compound 3.16 µM, first compound 0.03 µM) was 2.14%, the viability, T/C (second compound 3.16 µM, first compound 0.0949 µM) was 2.81% and the viability, T/C (second compound 3.16 µM, first compound 0.3 µM) was 0.81%. The viability, T/C (second compound 10 µM, first compound 0.000949 µM) was 40.4%, the viability, T/C (second compound 10 µM, first compound 0.003 µM) was 2.71% and the viability, T/C (second compound 10 µM, first compound 0.00949 µM) was 1.47%. It also gave a viability, T/C (second compound 10 µM, first compound 0.03 µM) of 4.33%, a viability, T/C (second compound 10 µM, first compound 0.0949 µM) of 2.67% and a viability, T/C (second compound 10 µM, first compound 0.3 µM) of 1.5%.

Nc1ccccc1NC(=O)c1ccc(CNC(=O)OCc2cccnc2)cc1 + CN1CCN(c2cc(C(=O)Nc3cc4cc(-c5cnn(C)c5)ccc4cn3)ccn2)CC1 was tested, and the IC50 [1] was 3730 nM, the IC50 [2] was 1550 nM and the IC50 [3] was less than 31.6 nM. For the same molecule, the IC50 [4] was less than 31.6 nM, the IC50 [5] was less than 31.6 nM and the IC50 [6] was less than 31.6 nM. The viability, T/C [7] was 110%, the viability, T/C [8] was 90.6% and the viability, T/C [9] was 92.7%. The viability, T/C [10] was 101%, the viability, T/C [11] was 57% and the viability, T/C [12] was 7.85%. The viability, T/C [13] was 84.4%, the viability, T/C [14] was 78% and the viability, T/C [15] was 77.3%. For the same molecule, the viability, T/C [16] was 65.3%, the viability, T/C [17] was 25.8% and the viability, T/C [18] was 2.96%. It also gave a viability, T/C [19] of 22.3%, a viability, T/C [20] of 19.1% and a viability, T/C [21] of 15.2%. The viability, T/C [22] was 15.9%, the viability, T/C [23] was 2.42% and the viability, T/C [24] was 1.03%. The viability, T/C [25] was 1.13%, the viability, T/C [26] was 1.4% and the viability, T/C [27] was 0.97%. For the same molecule, the viability, T/C [28] was 1.21%, the viability, T/C [29] was 1.83% and the viability, T/C [30] was 0.7%. The viability, T/C [31] was 1.82%, the viability, T/C [32] was 1.26% and the viability, T/C [33] was 0.87%. The viability, T/C [34] was 2.2%, the viability, T/C [35] was 1.61% and the viability, T/C [36] was 0.94%. For the same molecule, the viability, T/C [37] was 1.7%, the viability, T/C [38] was 0.57% and the viability, T/C [39] was 0.67%. It also gave a viability, T/C [40] of 2.12%, a viability, T/C [41] of 2.19% and a viability, T/C [42] of 0.39%.

In the case of CC1(C)CCC(CN2CCN(c3ccc(C(=O)NS(=O)(=O)c4ccc(NCC5CCOCC5)c([N+](=O)[O-])c4)c(Oc4cnc5[nH]ccc5c4)c3)CC2)=C(c2ccc(Cl)cc2)C1 + CNC(=O)c1ccc(Nc2nc(OC3CCCC3)c3c(-c4ccc5nc(C)oc5c4)c[nH]c3n2)c(OC)c1, the IC50 [1] is reported as 6100 nM, the IC50 [2] is reported as 4370 nM and the IC50 [3] is reported as 1740 nM. It also gave an IC50 [4] of less than 31.6 nM, an IC50 [5] of less than 31.6 nM and an IC50 [6] of less than 31.6 nM. For the same molecule, the viability, T/C [7] was 110%, the viability, T/C [8] was 109% and the viability, T/C [9] was 102%. For the same molecule, the viability, T/C [10] was 102%, the viability, T/C [11] was 119% and the viability, T/C [12] was 6.08%. The viability, T/C [13] was 81.6%, the viability, T/C [14] was 82% and the viability, T/C [15] was 85.8%. It also gave a viability, T/C [16] of 80%, a viability, T/C [17] of 67.9% and a viability, T/C [18] of 4.37%. For the same molecule, the viability, T/C [19] was 53.1%, the viability, T/C [20] was 57.5% and the viability, T/C [21] was 58.4%. For the same molecule, the viability, T/C [22] was 56.8%, the viability, T/C [23] was 43.2% and the viability, T/C [24] was 6.45%. The viability, T/C [25] was 36.1%, the viability, T/C [26] was 35.2% and the viability, T/C [27] was 37.5%. The viability, T/C [28] was 39.9%, the viability, T/C [29] was 33.1% and the viability, T/C [30] was 4.39%. The viability, T/C [31] was 35.9%, the viability, T/C [32] was 34.6% and the viability, T/C [33] was 35.1%. It also gave a viability, T/C [34] of 37.6%, a viability, T/C [35] of 32.1% and a viability, T/C [36] of 3.97%. It also gave a viability, T/C [37] of 34.7%, a viability, T/C [38] of 30.6% and a viability, T/C [39] of 40.3%. For the same molecule, the viability, T/C [40] was 36%, the viability, T/C [41] was 35.9% and the viability, T/C [42] was 6.13%.
